Literature values in patent publication US11957711B2 (priority 2021, dated 2024).

Columns and labels:
[1] = parts per million in gas; gas generated from HTH and carbon dioxide

SMILES | Solubility in water [g/100 g] | Solubility in other solvent (CCL4) | maximum allowable concentration [1] | time to kill the germs (germs)
ClOCl [CL2O, Dichlorine monoxide] | 143 | soluble in CCL4 | around 1.25 ppm | 
OCl [HCLO, Hypochlorous acid] |  |  |  | a few seconds
